≈ marks a conversion by molar mass, not a printed value.
How the values were obtained:
Assay type in all cases: functional
[1] = tested on: Staphylococcus aureus; assay: Compound was tested for in vitro antibacterial activity against Staphylococcus aureus 853E penicillinase (PCI) producing strain
[2] = tested on: Streptococcus pneumoniae; assay: Compound was tested for in vitro antibacterial activity against Streptococcus pneumoniae 3512
[3] = tested on: Clostridium perfringens; assay: Compound was tested for in vitro antibacterial activity against Clostridium perfringens 615E
[4] = tested on: Escherichia coli; assay: Compound was tested for in vitro antibacterial activity against Escherichia coli 1919 a beta-lactamase producing strain(TEM 1) with permeable outer membrane
[5] = tested on: Enterococcus faecalis; assay: Compound was tested for in vitro antibacterial activity against […] faecalis 850
[6] = tested on: Pseudomonas aeruginosa; assay: Compound was tested for in vitro antibacterial activity against Pseudomonas aeruginosa 1911
[7] = tested on: Bacteroides fragilis; assay: Compound was tested for in vitro antibacterial activity against Bacteroides fragilis 2017
[8] = tested on: Escherichia coli; assay: Compound was tested for in vitro antibacterial activity against Escherichia coli 1850E

COCCO[C@H]1CCC[C@H]2C1=C(C(=O)[O-])N1C(=O)[C@H]([C@@H](C)O)[C@@H]21.[K+]
MIC [1]: 0.5 µg/mL | MIC [2]: 0.2 µg/mL | MIC [3]: 0.03 µg/mL | MIC [4]: 0.5 µg/mL | MIC [5]: 2 µg/mL | MIC [6]: > 32 µg/mL | MIC [7]: 0.1 µg/mL | MIC [8]: 2 µg/mL

C[C@@H](O)[C@H]1C(=O)N2C(C(=O)[O-])=C3[C@@H](OCCO)CCC[C@@H]3[C@H]12.[K+]
MIC [1]: 0.5 µg/mL | MIC [2]: 0.1 µg/mL | MIC [3]: 0.06 µg/mL | MIC [4]: 0.5 µg/mL | MIC [5]: 8 µg/mL | MIC [6]: > 32 µg/mL | MIC [7]: 0.1 µg/mL | MIC [8]: 0.5 µg/mL

C[C@@H](O)[C@H]1C(=O)N2C(C(=O)[O-])=C3[C@@H](OCCF)CCC[C@@H]3[C@H]12.[K+]
MIC [1]: 0.2 µg/mL | MIC [2]: 0.03 µg/mL | MIC [3]: ≤ 0.01 µg/mL | MIC [4]: 0.5 µg/mL | MIC [5]: 4 µg/mL | MIC [6]: > 32 µg/mL | MIC [7]: 0.2 µg/mL | MIC [8]: 4 µg/mL

CO[C@H]1CCC[C@H]2C1=C(C(=O)[O-])N1C(=O)[C@H]([C@@H](C)O)[C@@H]21.[Na+] [SANFETRINEM SODIUM]
MIC [1]: 0.2 µg/mL | MIC [2]: ≤ 0.01 µg/mL | MIC [3]: 0.03 µg/mL | MIC [4]: 0.5 µg/mL | MIC [5]: 1 µg/mL | MIC [6]: > 32 µg/mL | MIC [7]: 0.06 µg/mL | MIC [8]: 0.5 µg/mL

COCCO[C@H]1CCC[C@@H]2C1=C(C(=O)[O-])N1C(=O)[C@H]([C@@H](C)O)[C@@H]21.[K+]
MIC [1]: 8 µg/mL | MIC [2]: 8 µg/mL | MIC [3]: > 32 µg/mL | MIC [4]: 32 µg/mL | MIC [5]: > 32 µg/mL | MIC [6]: > 32 µg/mL | MIC [7]: 32 µg/mL | MIC [8]: > 32 µg/mL

C[C@@H](O)[C@H]1C(=O)N2C(C(=O)O)=C(SCCNC=N)C[C@H]12 [IMIPENEM ANHYDROUS]
MIC [1]: 0.1 µg/mL (≈ 0.334 µM) | MIC [2]: < 0.01 µg/mL | MIC [3]: 0.03 µg/mL (≈ 0.1 µM) | MIC [4]: 0.5 µg/mL (≈ 1.67 µM) | MIC [5]: 2 µg/mL (≈ 6.68 µM) | MIC [6]: 4 µg/mL (≈ 13.4 µM) | MIC [7]: 0.06 µg/mL (≈ 0.2 µM) | MIC [8]: 0.5 µg/mL (≈ 1.67 µM)

C[C@@H](O)[C@H]1C(=O)N2C(C(=O)[O-])=C3[C@@H](OCCC#N)CCC[C@@H]3[C@H]12.[K+]
MIC [1]: 0.5 µg/mL | MIC [2]: 0.06 µg/mL | MIC [3]: 0.03 µg/mL | MIC [4]: 1 µg/mL | MIC [5]: 2 µg/mL | MIC [6]: > 32 µg/mL | MIC [7]: 0.2 µg/mL | MIC [8]: 4 µg/mL
